Source: patent US4992369A, “Fermentation process for glycopeptide antibiotic” (Pfizer Inc., priority 1986, dated 1991)

System: rumen fluid
Assay: In vitro rumen technique: propionic acid production in rumen fluid
Assay type: cell-based
Settings: 10 micrograms per milliliter; rumen fluid from fistulated cow, 39° C., about 16 hours
Experimental: The value of animal feeds has generally been determined directly by feeding the animal. British Patent Specification No. 1,197,826 details an in vitro rumen technique whereby the changes occurring in feeds brought about by microorganisms are measured more readily and with great accuracy in the evaluation of animal feeds. This technique involves the use of an apparatus in which the digestive processes of the animals are conducted and studied in vitro. The animal feeds, rumen inoculum and various growth promotants are introduced into and withdrawn from a laboratory unit under carefully controlled conditions and the changes taken place are studied critically and progressively during the consumption of the feed by the microorganisms. […] The change in propionic acid content is expressed as percent of the propionic acid content found in the control rumen fluid. Long term in vivo feeding studies are used to show a reliable correlation between propionic acid increase in the rumen fluid and improved animal performance. […]
After incubation, 5 ml. of the sample is mixed with 1 ml. of 25% metaphosphoric acid. […] Samples are then analyzed by gas-liquid chromatography by the method of D. W. Kellog, J. Dairy Science, 52, 1690, 1969. Peak heights for acetic, propionic and butyric acids are determined for samples from untreated and treated incubation flasks.

## CC[C@@H](C(=O)[C@@H](C)[C@@H](O)[C@H](C)[C@@H]1O[C@@H]([C@@H](CC)C(=O)O)CC[C@@H]1C)[C@H]1O[C@]2(C=C[C@@H](O)[C@]3(CC[C@@](C)([C@H]4CC[C@](O)(CC)[C@H](C)O4)O3)O2)[C@H](C)C[C@@H]1C [salinomycin]
  increase in the production of propionic acid over control: ~46%
